Measurements reported in patent US20220000872A1, “METHOD OF ENHANCING IMMUNE-BASED THERAPY” (OncoTracker, Inc., priority 2018, published 2022).

How the values were obtained:
PD-L1 gene expression = PD-L1 gene expression in BMMCs from MM patient #2188 co-cultured with HS-5 stromal cells or THP-1 monocytes; assay type: cell-based, human; settings: RUX 1 μM, 48 hours
Description: We also examined the effects of RUX on PD-L1 gene expression in MM tumor cells co-cultured with stromal cells or monocytes in vitro. BMMCs from MM patient #2188 were co-cultured with stromal cells from the HS-5 cell line (ATCC, CRL-11882) with or without RUX (1 μM) treatment. After 48 hours of co-culture, PD-L1 gene expression was increased in both BMMCs (FIG. 5A) and stromal cells (FIG. 5B) from the co-culture of both cell types compared with its expression in those cell types cultured alone. The increased PD-L1 levels were reduced in the presence of RUX (1 μM) in both cell populations after 48 hours of culture. Similarly, PD-L1 gene expression was increased in both BMMCs and monocytes (THP-1 cells) after co-culture compared with cells cultured alone (FIG. 5C and FIG. 5D) and reduced following exposure to RUX (1 μM).
FIG. 5A depicts relative PD-L1 gene expression in BMMCs from patient #2188 cultured with stromal cells (ATCC, HS-5) with RUX (1 μM) or without for 48 hours. BM, bone marrow cells alone; BM+1 μM, BMMCs treated with 1 μM RUX; BM/BM+S−0 μM, BMMCs with stromal cells without RUX; BM/BM+S+1 μM, BMMCs with stromal cells and 1 μM RUX.
FIG. 5B depicts relative PD-L1 gene expression in stromal cells (ATCC, HS-5) co-cultured with BMMCs from patient #2188 on Transwell inserts with (1 μM) or without RUX for 48 hours. Stroma cells (S) alone; stromal cells+1 μM, stromal cells treated with RUX (1 μM); S/BM+S−0 μM, BMMCs with stromal cells without RUX; S/BM+S−1 μM, BMMCs with stromal cells with RUX at 1 μM.
FIG. 5C depicts relative PD-L1 gene expression in BMMCs from patient #2188 co-cultured with THP-1 monocytes treated with (1 μM) or without RUX for 48 hours. BM, BMMCs alone; BM+1 μM, BMMCs treated with 1 μM RUX; BM/BM+T−0 μM, BMMCs with THP-1 monocytes without RUX; BM/BM+T+1 μM, BMMCs with THP-1 monocytes treated with RUX 1 μM.
FIG. 5D depicts relative PD-L1 gene expression in THP-1 monocytes co-cultured with BMMCs from patient #2188 on Transwell inserts with (1 μM) or without RUX for 48 hours. THP-1 only, THP-1 cells alone; THP-1+1 μM, THP-1 cells treated with 1 μM RUX; T/BM+T−0 μM, MM BMMCs with THP-1 cells without RUX; T/BM+T−1 μM, BMMCs with THP-1 monocytes with RUX (1 μM).

[1] = tested on: PD-1 expression on T-cells; experiment: PD-1 expression on T-cells (Example 11); assay type: cell-based
[2] = tested on: PD-L2 gene and protein expression; experiment: PD-L2 gene and protein expression in MM tumor cells alone or co-cultured with stromal cells (Example 11); assay type: cell-based, human; settings: concentration dependent pattern
Description: BM mononuclear cells (MCs) and serum were collected from MM patients and healthy subjects after obtaining IRB approval. Single-cell suspensions were prepared from human MM LAGκ-1A xenografts which had been grown in the mice. The cells were cultured and treated with or without RUX and then were determined by qPCR, flow cytometric analysis, ELISA, and western blot.
We further investigated the effects of RUX on PD-L1 and PD-L2 expression in primary and stromal cells from MM patients' BM samples in vitro. […] We then determined whether RUX can augment the anti-MM effects of T-cells in vitro. […] To evaluate the efficacy of drugs in vivo, severe combined immune deficient mice implanted with the human MM xenograft LAGκ-2 were treated with RUX (30 mg/kg).

[3] = tested on: CD138+ myeloma tumor cells; experiment: Annexin V apoptosis assay of CD138-selected primary myeloma cells co-cultured with IL-2-stimulated T-cells; assay type: cell-based, human; settings: CD138+ cells with IL-2-stimulated SUP-T1 T cells; 72 hours; RUX at varying concentrations; rose from approximately 35% up to this value, concentration dependent
Description: FIG. 10A depicts an apoptosis assay of fresh CD138-selected myeloma tumor cells combined with IL-2-stimulated T-cells (SUP-T1, ATCC) and treated with ruxolitinib (RUX) in vitro. T-cells were pre-treated with IL-2 (20 ng/ml) for 24 hours. Primary myeloma cells were CD138-selected using an immunoadsorption column and co-cultured with T cells with or without RUX at varying concentrations for 72 hours. Apoptosis in CD138+ cells was measured using the Annexin V assay per the manufacturer's protocol (Biovision) followed with flow cytometric analysis (FC-500 cytometer using Cytometrics CXP software, both Beckman Coulter). Minimal apoptosis was observed without T cells. Apoptosis occurred in a much higher proportion of myeloma tumor cells exposed to IL-2-stimulated T cells (FIG. 10A). RUX increased the fraction of cells that underwent apoptosis from approximately 35% up to about 65% in a concentration dependent fashion.

IL-2 gene expression = IL-2 gene expression in MMBM (Example 12); assay type: cell-based, human
Description: (§1) Bone marrow mononuclear cells (BMMCs) were collected from MM patients after obtaining IRB approval. Single-cell suspensions were prepared from human MM LAGλ-1A xenografts which had been grown in severe combined immunodeficient mice. HS-5 stromal and SUP-T1 T cells were purchased from ATCC. The cells were cultured and treated with or without RUX and then subjected to qRT-PCR, flow cytometric analysis, and western blot analysis. For qRT-PCR, total RNA was extracted and applied to cDNA synthesis, followed by qPCR. Gene expression was analyzed in MM BMMCs alone or co-cultured with stromal cells or T cells with or without Rux treatment (1 μM) in vitro.
Next, we tested whether B7-H3 blockade by Rux could potentially restore exhausted T cell activity against myeloma cells in MMBM.

B7-H3 = B7-H3 expression (qRT-PCR, flow cytometry, western blot) in MM cells (Example 12); assay type: cell-based, human
Description: as §1

PD-L1 protein expression = PD-L1 protein expression on MM cells by flow cytometry, BMMCs co-cultured with HS-5 stromal cells; assay type: cell-based, human; settings: fresh MM BMMCs co-cultured with HS-5, 72 hours
Description: To investigate the effects of RUX on PD-L1 protein expression on myeloma cell membranes, fresh MM BMMCs were isolated from MM patients and co-cultured with stromal cells (HS-5, ATCC). After 72 hours, cells were fixed using 2% paraformaldehyde for 30 minutes on ice and washed with PBS twice. The cells were stained with anti-PD-L1 antibody conjugated with PE and anti-CD138 antibody conjugated with FITC antibody for 2 hrs and analyzed by flow cytometry using a Beckman Coulter FC500 cytometer with Cytomics CXP software (Beckman Coulter, Fullerton, Calif.).

Question: With `N#CC[C@H](C1CCCC1)n1cc(-c2ncnc3[nH]ccc23)cn1` [RUX, ruxolitinib] as the compound, how does the “PD-L1 gene expression in stromal cells co-cultured with BMMCs” value (PD-L1 gene expression; HS-5 with patient #2188 BMMCs) read?
Answer: Its value is “reduced”.

Question: What about the “PD-L1 gene expression in monocytes (THP-1 cells) co-cultured with BMMCs” value (PD-L1 gene expression; THP-1 with patient #2188 BMMCs) of the same compound?
Answer: Its value is “reduced”.

Question: And the “PD-L1 gene expression in BMMCs co-cultured with stromal cells” value (PD-L1 gene expression; patient #2188 BMMCs with HS-5)?
Answer: Its value is “reduced”.

Question: What about the “PD-L1 gene expression in BMMCs co-cultured with monocytes” value (PD-L1 gene expression; patient #2188 BMMCs with THP-1) of the same compound?
Answer: Its value is “reduced”.

Question: And the “PD-1 expression on T-cells” value [1]?
Answer: The value was “no effect”.

Question: What about the “PD-L2 gene and protein expression in MM tumor cells” value [2] of the same compound?
Answer: Its value is “markedly reduced”.

Question: And the “fraction of cells that underwent apoptosis” value [3]?
Answer: The value was “about 65%”.

Question: And the “IL-2 gene expression in BM cocultured with T cells” value (IL-2 gene expression; SUP-T1)?
Answer: Its value is “elevated”.

Question: And the “IL-2 gene expression in MMBM with lower plasma percentages” value (IL-2 gene expression; plasma cell percentage <30%)?
Answer: Its value is “increase”.

Question: What about the “increase of IL-2 gene expression in MMBM with higher plasma cell percentages” value (IL-2 gene expression; plasma cell percentage >70%) of the same compound?
Answer: Its value is “not”.

Question: What about the “B7-H3 expression in BM from patients in PD co-cultured with stromal cells (HS-5)” value (B7-H3; after 48-72 hours, Rux 1 μM) of the same compound?
Answer: Its value is “significantly reduced”.

Question: And the “B7-H3 expression in MM cells (U266)” value (B7-H3; after 48-72 hours, Rux 1 μM)?
Answer: Its value is “significantly reduced”.

Question: What about the “B7-H3 expression in MMBMMCs in patients with PD” value (B7-H3; after 48-72 hours, Rux 1 μM) of the same compound?
Answer: The value was “significantly reduced”.

Question: And the “B7H3 expression in human MM xenograft model LAGλ-1A” value (B7-H3; cultured ex vivo)?
Answer: Its value is “decreased”.

Question: And the “B7-H3 at protein levels” value (B7-H3; flow cytometric analysis and western blotting)?
Answer: Its value is “suppressed”.

Question: What about the “PD-L1-expressing MM tumor cells” value (PD-L1 protein expression) of the same compound?
Answer: The value was “reduced in a concentration dependent manner”.
